This is an account of results in patent publication US10633417B2 (priority 2013, dated 2020).

The subject of this experiment is Sprague-Dawley rats. Conditions: rat, in vivo.

In the case of `CC(C)C[C@H](CN)CC(=O)O` [Pregabalin, pregabalin], the “activity on mechanical allodynia (von Frey), days 14 and 21” value is “active”.
As for GCCSDPRCRYRCR [RgIA], the “OXA-induced pain threshold decrease (von Frey), day 7, 30 min” value was “reverted”.
